# From EP0623339B1, “Use of 4-,4- and 5-, or 4- and 6-substituted derivatives of resorcin in cosmetic or dermopharmaceutical compositions for depigmentation” (L'OREAL, priority 1993, dated 1994)
# Test system: tyrosinase de champignons
# Test: in vitro inhibition test of tyrosinase activity (dopachrome formation followed at 475 nm)
# Assay type: biochemical
# Conditions: lowering of maximal dopachrome formed (OD 475 nm at plateau) vs. no inhibitor; inhibitor at 50 % molaire relative to tyrosine; pH = 6,5; 25°C
# Source text: Certains des composés de formule générale (I) ont été étudiés comparativement à l'hydroquinone à quantité molaire équivalente dans le test d'inhibition in vitro de l'activité de la tyrosinase.
# Selon ce test on suit par spectrométrie visible à 475 nm la quantité de dopachrome formée au cours de la chaîne de réactions de transformation de la tyrosine en mélanines. Ces réactions sont catalysées in vitro par la tyrosinase de champignons, en présence d'un co-substrat réducteur (par exemple la L-dopa en petite quantité) pour initier la réaction d'hydroxylation de la L-tyrosine en L-dopa, laquelle est ensuite oxydée catalytiquement en dopaquinone puis en dopachrome, produit intermédiaire avant les réactions d'oxydation non enzymatiques aboutissant à la formation des mélanines.
# On mesure donc la concentration en dopachrome formé au cours du temps en présence et en absence de l'inhibiteur. […]
# On exprime l'effet d'inhibition par l'abaissement de la quantité maximale de dopachrome formée (valeur de densité optique à 475 nm lue au plateau de la courbe) par rapport à la quantité obtenue en l'absence d'inhibiteur. […]
# • cuve de référence : 3 ml de A • cuve d'essai : 1 ml de B 0,1 ml de C 1,85ml de A + E • homogénéiser et équilibrer à 25°C • ajouter 0,05 ml de D • mélanger rapidement et observer la cinétique par la mesure de l'absorbance à 475 nm en fonction du temps.
smiles,measurement,value
Oc1ccc(O)cc1 [hydroquinone],% d'inhibition,-33%
